According to PubChem BioAssay AID1963965 (Molecular Pharmacology Branch, DTP, NCI, 2024):

Tested on: 996289-038-R-J1-PDC spheroid viability
Assay: Anticancer human tumor 996289-038-R-J1-PDC patient-derived colon adenocarcinoma cell line growth inhibition [PI3K]
Conditions: spheroids with HUVEC and MSC; for IC50: curve of first compound; for viability, T/C: stronger effect = lower value
Excerpt: Combinatorial screen of targeted agents with the PI3K inhibitors inavolisib, alpelisib, duvelisib, and copanlisib in multi-cell type tumor spheroids
A high-throughput screen of multi-cell type tumor spheroids was designed to identify active combinations of targeted small molecules and PI3K pathway inhibitors. Complex spheroids include a stromal component modeled by human endothelial cells (HUVEC) and fibroblasts modeled by human mesenchymal stem cells (MSCs). The concentration ranges selected for each drug and investigational agent were based upon clinically achievable concentrations if the clinical Cmax of the agent was known.
Compounds. The drugs and investigational agents: inavolisib (NSC800729), alpelisib (NSC765974), duvelisib (NSC772469), copanlisib (NSC816437), ipatasertib (NSC767898), afuresertib (NSC778305), talazoparib (NSC767125), sapanisertib (NSC764658), selumetinib (NSC741078), tovorafenib (DAY101, NSC766906), vemurafenib (NSC761431), ravoxertinib (NSC781343), sotorasib (NSC818433), MRTX1133 (NSC 836407), abemaciclib (NSC 768073), palbociclib (NSC758247), venetoclax (NSC 766270), SY5609 (NSC837396), enzalutamide (NSC755605), and darolutamide (NSC825331), were obtained from the National Cancer Institute (NCI) Developmental Therapeutics Program Chemical Repository. The FDA-approved anticancer drug set is available from the NCI Developmental Therapeutics Program. […] The stock solutions were prepared in dimethyl sulfoxide (DMSO, Sigma-Aldrich, St. Louis, MO, cat. D2650) at 800-fold the tested concentration and stored at -70 degrees C prior to their use. All drugs and investigational agents were tested over a range starting from a high concentration at or near the clinical Cmax and decreasing in half-log increments. If the clinical Cmax for an agent had not been determined, the highest concentration tested was 10 microM.
Cell Culture. All cells were maintained in an incubator at 37 degrees C and 5% CO2 with 95% humidity. The PDC lines were cultured according to standard operating procedures established by the NCI PDMR (https://pdmr.cancer.gov/sops/default.htm). All PDCs were thawed and cultured in Matrigel-coated flasks prepared with a working solution of 1X Ham's F-12 nutrient mix, without supplementation (Invitrogen, Waltham, MA, cat. 11765054), 100 U/mL penicillin-streptomycin (Invitrogen, cat. 15140122), and 2.5% Matrigel (Corning Inc., Corning, NY, cat. 354248) for the first three passages. The 354836-022-R-J1-PDC, 475296-252-R-J1-PDC, and 997726-040-R-J2-PDC lines were cultured in 6A media, which includes advanced DMEM/F-12 (Thermo Fisher Scientific, cat. 12634028), 10 mM HEPES (Thermo Fisher Scientific, cat. 15630080), 1X GlutaMAX supplement (Thermo Fisher Scientific, cat. 35050061), 0.1 mg/mL primocin (InvivoGen, San Diego, CA, cat. ant-pm-2), 10% defined fetal bovine serum, heat inactivated (HyClone Laboratories Inc., Logan, UT, cat. SH30070.03HI), 50% L-WRN conditioned media (ATCC, cat. CRL-3276), 1.25 mM N-Acetyl-L-cysteine (Sigma-Aldrich, cat. A9165), 10 mM nicotinamide (Sigma-Aldrich, cat. N0636), 1X B-27 supplement (Thermo Fisher Scientific, cat. 17504044), 1X N-2 supplement (Thermo Fisher Scientific, cat. 17502048), and 10 microM Y-27632 dihydrochloride (Tocris Bioscience, Bristol, United Kingdom, cat. 1254). The 624824-186-R-J2-PDC line was cultured in 6C/Colon 1B media, which includes all 6A media components plus 50 ng/mL human EGF recombinant protein (Thermo Fisher Scientific, cat. PHG0311). […]
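Note: spheroids exposed to compounds for seven days before viability read.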
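Throughout, for viability, T/C: luminescence used as a proxy for viable cell amount; percent viability relative to DMSO vehicle control as 100%.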

Structure (SMILES): CC(C)NCC(C(=O)N1CCN(c2ncnc3c2C(C)CC3O)CC1)c1ccc(Cl)cc1 (configuration not stated) + Cc1nc(NC(=O)N2CCCC2C(N)=O)sc1-c1ccnc(C(C)(C)C(F)(F)F)c1
- IC50 (second compound 0.0316 µM): > 10 µM
- IC50 (second compound 0.1 µM): > 10 µM
- IC50 (second compound 0.316 µM): > 10 µM
- IC50 (second compound 1 µM): > 10 µM
- IC50 (second compound 3.16 µM): 5.06 µM
- IC50 (second compound 10 µM): < 0.0316 µM
- viability, T/C (second compound 0.0316 µM, first compound 0.0316 µM): 82.8%
- viability, T/C (second compound 0.0316 µM, first compound 0.1 µM): 92.3%
- viability, T/C (second compound 0.0316 µM, first compound 0.316 µM): 85.9%
- viability, T/C (second compound 0.0316 µM, first compound 1 µM): 97.7%
- viability, T/C (second compound 0.0316 µM, first compound 3.16 µM): 85.2%
- viability, T/C (second compound 0.0316 µM, first compound 10 µM): 66.7%
- viability, T/C (second compound 0.1 µM, first compound 0.0316 µM): 82.4%
- viability, T/C (second compound 0.1 µM, first compound 0.1 µM): 81%
- viability, T/C (second compound 0.1 µM, first compound 0.316 µM): 97.9%
- viability, T/C (second compound 0.1 µM, first compound 1 µM): 82.1%
- viability, T/C (second compound 0.1 µM, first compound 3.16 µM): 82.1%
- viability, T/C (second compound 0.1 µM, first compound 10 µM): 66.2%
- viability, T/C (second compound 0.316 µM, first compound 0.0316 µM): 76.5%
- viability, T/C (second compound 0.316 µM, first compound 0.1 µM): 88.8%
- viability, T/C (second compound 0.316 µM, first compound 0.316 µM): 81.7%
- viability, T/C (second compound 0.316 µM, first compound 1 µM): 69.2%
- viability, T/C (second compound 0.316 µM, first compound 3.16 µM): 78.4%
- viability, T/C (second compound 0.316 µM, first compound 10 µM): 54.5%
- viability, T/C (second compound 1 µM, first compound 0.0316 µM): 68.7%
- viability, T/C (second compound 1 µM, first compound 0.1 µM): 60.7%
- viability, T/C (second compound 1 µM, first compound 0.316 µM): 67.8%
- viability, T/C (second compound 1 µM, first compound 1 µM): 69.5%
- viability, T/C (second compound 1 µM, first compound 3.16 µM): 59.5%
- viability, T/C (second compound 1 µM, first compound 10 µM): 51%
- viability, T/C (second compound 3.16 µM, first compound 0.0316 µM): 61%
- viability, T/C (second compound 3.16 µM, first compound 0.1 µM): 60%
- viability, T/C (second compound 3.16 µM, first compound 0.316 µM): 60.7%
- viability, T/C (second compound 3.16 µM, first compound 1 µM): 59.1%
- viability, T/C (second compound 3.16 µM, first compound 3.16 µM): 57%
- viability, T/C (second compound 3.16 µM, first compound 10 µM): 40.1%
- viability, T/C (second compound 10 µM, first compound 0.0316 µM): 45.7%
- viability, T/C (second compound 10 µM, first compound 0.1 µM): 35.9%
- viability, T/C (second compound 10 µM, first compound 0.316 µM): 43.5%
- viability, T/C (second compound 10 µM, first compound 1 µM): 45.9%
- viability, T/C (second compound 10 µM, first compound 3.16 µM): 34.3%
- viability, T/C (second compound 10 µM, first compound 10 µM): 28.2%
